The values below come from patent US8163718B2, “Nucleoside analogues containing phosphonate or phosphonamide groups” (Gilead Sciences, Inc., priority 2008, dated 2012).

The structures appear in SMILES notation. Where only a bound is given, the exact number is not on record here.

What all share (assay): Cytostatic cell culture assay (GI50), SRB
Type in all cases: cell-based

One assay relates to A549. Conditions: Homo sapiens, A549, 120 h; 5 days incubation. From the text: (§1) The assay is based on quantification of cell counts by a colorimetric detection of the cell associated proteins. The assay relies on the ability of sulforhodamine B (SRB) to bind to protein components of cells that have been fixed to tissue-culture plates by trichloroacetic acid (TCA). SRB is a bright-pink aminoxanthene dye with two sulfonic groups that bind to basic amino-acid residues under mild acidic conditions, and dissociate under basic conditions. As the binding of SRB is stoichiometric, the amount of dye extracted from stained cells is directly proportional to the cell mass.
(§2) Cell lines: All cell lines were obtained from ATCC (Manassas, Va.). Cultivation media containing Glutamax, and trypsin were purchased from Invitrogen (Carlsbad, Calif.). Doxorubicin, Clofarabine, TCA and SRB were from Sigma-Aldrich (St. Louis, Mo.). Gemcitabine was obtained from Moravek Biochemicals (Brea, Calif.)
(§3) • 1. Trypsinize the sub-confluent cells, count them, and adjust the cell concentrations according to the cell counts listed in Table 1. • 2. Distribute the cells into the 96-well plates in 150 μL of media. Incubate the plates overnight in humidified CO2 incubator at 37° C. • 3. Fix one plate of each cell line with TCA. Discard the cultivation media from the plates by flicking them gently and add 100 ul cold 10% (vol/vol) TCA to each well. Incubate the plates at 4 degree refrigerator for 1 hour. Discard TCA from the plates by flicking them gently. Rinse plates four times in a washing basin containing tap water. Store the plates at room temperature. These plates represent cell counts on day zero. • 4. Prepare a set of medium solutions containing various concentrations of tested compounds by making 5-fold serial dilutions in 96-well plate. Add 50 μL of the diluted compounds per well. Include controls with untreated cells and cells treated with doxorubicin, clofarabine and gemcitabine. • 5. Incubate the plates for 5 days at 37° C. • 6. Fix the plates with TCA. Discard the cultivation media from the plates by flicking them gently and add 100 ul cold 10% (vol/vol) TCA to each well. Incubate the plates at 4 degree refrigerator for 1 hour. Discard TCA from the plates by flicking them gently. Rinse plates four times in a washing basin containing tap water. • 7. Remove excess water by tapping the plates face down, gently on a paper towel. Allow the plates to air-dry at room temperature. • 8. Add 100 ul of 0.057% SRB solution in 1% (vol/vol) acetic acid to each well of the plates fixed with TCA on day zero and five. Leave at room temperature for 30 minutes. • 9. Flick the plates gently to discard SRB. Rinse the plates four times with 1% (vol/vol) Acetic Acid. • 10. Store the plates at 37 degree incubator to facilitate faster drying. • 11. Once the plates are completely dry, add 200 ul of 10 mM Tris base solution (pH 10.5) to each well. Leave at room temperature for 30 minutes for SRB to solubilize. • 12. Measure the OD at 500 nm in a microplate reader • 13. Calculate the percentage of cell-growth inhibition using the next formula: % of control cell growth=100×(ODsample−mean ODday0)/(ODneg control−mean ODday0)
(§4) For GI50 determination, plot a dose-response curve between the compound concentration and percent of growth inhibition. GI50 values can be derived by fitting dose-response curves using sigmoidal dose response equation.

Another assay relates to BT-549. Particulars: Homo sapiens, BT-549, 120 h; 5 days incubation.
Excerpt: as §1, §2, §3, §4

In another assay the test system is Du-145. Conditions: Homo sapiens, DU-145, 120 h; 5 days incubation.
Excerpt: as §1, §2, §3, §4

A further assay deals with HCT-116. Particulars: Homo sapiens, HCT-116, 120 h; 5 days incubation.
Excerpt: as §1, §2, §3, §4

The next assay deals with HCT-15. Conditions: Homo sapiens, HCT-15, 120 h; 5 days incubation.
Excerpt: as §1, §2, §3, §4

The test system of another assay is Hs-578. Particulars: Hs578, 120 h; 5 days incubation.
Excerpt: as §1, §2, §3, §4

Another assay deals with NCI-H23. Particulars: Homo sapiens, NCI-H23, 120 h; 5 days incubation.
Excerpt: as §1, §2, §3, §4

In another assay the test system is PC3. Particulars: Homo sapiens, PC-3, 120 h; 5 days incubation.
Excerpt: as §1, §2, §3, §4

One may read the GI50 as the concentration that inhibits growth by half. Read a high GI50 as less potent growth inhibition.

Regarding `CCCOc1nc(N)nc2c1ncn2CCOCP(=O)(OCOC(=O)OC(C)C)OCOC(=O)OC(C)C` [Example 59], the GI50 with A549 was 168 nM; with BT-549, 45 nM; in the assay on Du-145, 2 nM; with HCT-116, 118 nM; in the assay with HCT-15, 534 nM; in the assay on Hs-578, 61 nM. For the same compound, the GI50 worked out at 10 nM with NCI-H23 and 40 nM in the assay with PC3.
Regarding `CCCOc1nc(N)nc2c1ncn2CCOCP(=O)(N[C@@H](Cc1ccccc1)C(=O)OCC)Oc1ccccc1` (some centres unmarked) [Example 55], the GI50 in the assay with A549 is 80 nM; with BT-549, 756 nM; in the assay with Du-145, 4 nM; in the assay on HCT-116, 47 nM; with HCT-15 it was 815 nM; with Hs-578 it was 149 nM. For the same compound, the GI50 stood at 9 nM in the assay on NCI-H23 and 59 nM in the assay on PC3.
`CCOC(=O)[C@H](C)NP(=O)(COCCn1cnc2c(OC3CCCC3)nc(N)nc21)N[C@@H](C)C(=O)OCC` [Example 46]: the GI50 in the assay on A549 was 474 nM; with BT-549 it was 286 nM; with Du-145, 17 nM; with HCT-116, 269 nM; in the assay with HCT-15, 6300 nM; in the assay with Hs-578 it was 96 nM. Further, the GI50 with NCI-H23 stood at 23 nM; in the assay with PC3 it was 85 nM.
As to `CCCOc1nc(N)nc2c1ncn2CCOCP(=O)(N1CCC[C@H]1C(=O)OC)N1CCC[C@H]1C(=O)OC` [Example 22], the GI50 in the assay on A549 is 640 nM; in the assay with BT-549 it was 116 nM; with Du-145 it was 35 nM; with HCT-116, 194 nM; in the assay with HCT-15, greater than 10000 nM; with Hs-578 it was 82 nM. Moreover, the concentration for 50% growth inhibition (GI50) in the assay with NCI-H23 came to 38 nM; with PC3 it was 121 nM.
With `CCCCOC(=O)[C@H](C)NP(=O)(COCCn1cnc2c(OC)nc(N)nc21)N[C@@H](C)C(=O)OCCCC` [Example 27], the GI50 is 26 nM with A549; 33 nM with BT-549; 2 nM with Du-145; 23 nM with HCT-116; 2370 nM in the assay on HCT-15; 53 nM with Hs-578. The GI50 was determined as 4 nM in the assay with NCI-H23 and 13 nM with PC3.
Regarding `COc1nc(N)nc2c1ncn2CCOCP(=O)(OCOC(=O)OC(C)C)OCOC(=O)OC(C)C` [Example 60], the concentration for 50% growth inhibition (GI50) is 91 nM in the assay on A549; 42 nM with BT-549; 2 nM in the assay with Du-145; 79 nM in the assay on HCT-116; 766 nM in the assay with HCT-15; 22 nM in the assay with Hs-578. The figures for the GI50 in the assay with NCI-H23 and with PC3 were 5 nM and 52 nM, respectively.
Consider `CCCCOC(=O)[C@H](Cc1ccccc1)NP(=O)(COCCn1cnc2c(OCCC)nc(N)nc21)N[C@@H](Cc1ccccc1)C(=O)OCCCC` [Example 17], for which the GI50 in the assay with A549 is 5 nM; in the assay on BT-549, 17 nM; with Du-145, 1 nM; in the assay with HCT-116 it was 4 nM; in the assay on HCT-15, 336 nM; in the assay with Hs-578, 5 nM. Besides, the figures for the GI50 in the assay with NCI-H23 and with PC3 were 2 nM and 6 nM, respectively.
`CCCOc1nc(N)nc2c1ncn2CCOCP(=O)(N1CCC[C@H]1C(=O)OC(C)C)N1CCC[C@H]1C(=O)OC(C)C` [Example 24]: the GI50 in the assay on A549 was 3820 nM; with BT-549, 386 nM; with Du-145, 138 nM; in the assay with HCT-116 it was 979 nM; in the assay with HCT-15 it was greater than 10000 nM; in the assay on Hs-578, 452 nM. For the same compound, the GI50 worked out at 124 nM in the assay with NCI-H23 and 634 nM with PC3.
As for `CCCOc1nc(N)nc2c1ncn2CCOCP(=O)(N1CCC[C@H]1C(=O)OCc1ccccc1)N1CCC[C@H]1C(=O)OCc1ccccc1` [Example 20], the GI50 with A549 was determined as 530 nM; in the assay with BT-549 it was 167 nM; in the assay on Du-145 it was 27 nM; in the assay with HCT-116 it was 264 nM; with HCT-15, 2350 nM; in the assay with Hs-578 it was 132 nM. Besides, the GI50 with NCI-H23 is 30 nM; with PC3, 111 nM.
Take `CCOC(=O)[C@H](C)NP(=O)(COCCn1cnc2c(OCC)nc(N)nc21)N[C@@H](C)C(=O)OCC` [Example 37]: the GI50 with A549 is 458 nM; in the assay on BT-549, 292 nM; in the assay on Du-145 it was 23 nM; in the assay on HCT-116, 509 nM; in the assay on HCT-15, greater than 10000 nM; in the assay on Hs-578, 198 nM. Also, the GI50 in the assay on NCI-H23 stood at 31 nM; in the assay on PC3, 146 nM.
Take `CCCCOC(=O)[C@H](C)NP(=O)(COCCn1cnc2c(OC3CC3)nc(N)nc21)Oc1ccccc1` (some centres unmarked) [Example 58]: the concentration for 50% growth inhibition (GI50) in the assay on A549 is 204 nM; in the assay on BT-549, 585 nM; in the assay on Du-145, 1 nM; in the assay on HCT-116, 114 nM; in the assay on HCT-15, 1030 nM; in the assay on Hs-578, 42 nM. The GI50 in the assay on NCI-H23 is 3 nM; in the assay on PC3, 60 nM.
For the compound `CCCCOc1nc(N)nc2c1ncn2CCOCP(=O)(N[C@@H](C)C(=O)OCC)N[C@@H](C)C(=O)OCC` [Example 35], the concentration for 50% growth inhibition (GI50) with A549 came to 187 nM; with BT-549 it was 145 nM; with Du-145, 5 nM; in the assay with HCT-116 it was 140 nM; in the assay on HCT-15, 8900 nM; in the assay on Hs-578, 46 nM. Further, the results for the GI50 in the assay on NCI-H23 and in the assay on PC3 were 14 nM and 28 nM, respectively.
As for `CCCOc1nc(N)nc2c1ncn2CCOCP(=O)(N[C@@H](C)C(=O)OCC)N[C@@H](C)C(=O)OCC` [Example 14], the GI50 in the assay with A549 was 381 nM; with BT-549, 266 nM; in the assay with Du-145 it was 28 nM; in the assay with HCT-116, 488 nM; in the assay on HCT-15 it was greater than 10000 nM; with Hs-578 it was 202 nM. In addition, the GI50 stood at 29 nM with NCI-H23 and 275 nM in the assay with PC3.
In the case of `CCOC(=O)[C@H](C)NP(=O)(COCCn1cnc2c(OC3CC3)nc(N)nc21)N[C@@H](C)C(=O)OCC` [Example 42], the GI50 in the assay with A549 was 1710 nM; in the assay with BT-549, 104 nM; in the assay with Du-145, 10 nM; in the assay with HCT-116, 430 nM; in the assay with HCT-15 it was 10000 nM; in the assay on Hs-578 it was 162 nM. Moreover, the figures for the GI50 in the assay with NCI-H23 and in the assay on PC3 were 15 nM and 237 nM, respectively.
Consider `CCOC(=O)[C@H](C)NP(=O)(COCCn1cnc2c(OC3CCCCC3)nc(N)nc21)N[C@@H](C)C(=O)OCC` [Example 39], for which the GI50 in the assay with A549 is 3190 nM; with BT-549, 2650 nM; with Du-145, 102 nM; with HCT-116 it was 1480 nM; in the assay on HCT-15, greater than 10000 nM; in the assay on Hs-578 it was 697 nM. Besides, the GI50 was 198 nM in the assay on NCI-H23 and 141 nM in the assay with PC3.
Turning to `CCCCOC(=O)[C@H](C)NP(=O)(COCCn1cnc2c(OC3CC3)nc(N)nc21)N[C@@H](C)C(=O)OCCCC` [Example 43], the GI50 in the assay on A549 came to 102 nM; in the assay on BT-549 it was 17 nM; in the assay with HCT-116 it was 11 nM; in the assay with HCT-15, 1520 nM; in the assay on Hs-578, 32 nM; in the assay on NCI-H23, 1 nM. The compound further registered a GI50 with PC3 of 32 nM.
Consider `CCCCOC(=O)[C@H](C)NP(=O)(COCCn1cnc2c(OCCCC)nc(N)nc21)N[C@@H](C)C(=O)OCCCC` [Example 36], for which the GI50 in the assay with A549 was determined as 13 nM; with BT-549 it was 120 nM; with HCT-116, 7 nM; in the assay with HCT-15, 869 nM; with Hs-578, 11 nM; in the assay on NCI-H23, 2 nM. The GI50 with PC3 was found to be 3 nM.
